Data on three molecules can be found in patent US9301933B2, “Compositions and methods for treating presbyopia, mild hyperopia, and irregular astigmatism” (ALLERGAN, INC., priority 2011, dated 2016).

The subject of data set [1] is eyes of presbyopic (emmetropic or slightly hyperopic) patients. Briefly: Unaided near visual acuity (UNVA) at 40 centimeters, hand-held Rosembaum chart, Jaeger notation. Also noted: key to 1 h UNVA: J1+ is fine “normal” near vision (equivalent to 20/20 in Snellen terms); J1 is good near vision (equivalent to 20/25 in Snellen terms); J2 and J3 are fair and functional near vision, respectively (equivalent to 20/30 and 20/40, respectively, in Snellen terms); J2 and J3 are fair and functional near vision, respectively (equivalent to 20/30 and 20/40, respectively, in Snellen terms). The conditions noted are these: Example 3. The format is in vivo, human. How it is done:
Measurements on the Jaeger scale, a near vision scale, are used and described herein. […]
(§1) A group of 10 patients (20 eyes) considered emmetropes or slightly hyperopic (Spherical equivalent from +0.88 D to −0.13 D with less than 1.00 D of astigmatism) was treated with a composition of the invention.
(§2) One drop containing 1% pilocarpine and 0.025% oxymetazoline w/w dissolved in a solution of 0.5% sodium chloride, with carboxymethyl cellulose as a viscosant and benzalkonium chloride as preservative were instilled once into the right eye, and the same solution containing 1% pilocarpine without oxymetazoline was instilled once into the left eye and the same measurements were taken one hour, four hours and six hours later. (Each patient acted as its own control) (Table 2). […]

For data set [2] the test system is unchanged. Briefly: Unaided distance visual acuity (UDVA), Snellen chart. The format is in vivo, human. The conditions noted are these: Example 3. As for the experimental part: as §1, §2
Data set [3] shares this test system. Briefly: Refractive power of each eye (sphere, cylinder, spherical equivalent). The format is in vivo, human. The conditions noted are these: Example 3. From the text:
The following terms are ophthalmic terms commonly used by those of skill in the art. “OD” stands for oculus dexter and means right eye. “OS” stands for oculus sinister and means left eye. “UDVA” stands for unaided distance visual acuity. “UNVA” stands for unaided near visual acuity. “Sph” is the sphere, or the amount of magnification/demagnification that the eye needs to see properly. A negative sphere indicates myopia, and a positive sphere indicates hyperopia. “Cyl” is the cylinder, which is a measure of astigmatism. “Pre” indicates the condition of the eye prior to treatment, 1 h indicates the condition of the eye 1 hour after treatment, 4 h indicates the condition of the eye 4 hours after treatment, and 6 h indicates the condition of the eye 6 hours after treatment. “Sph Eq” is the spherical equivalent.
A group of 10 patients (20 eyes) considered emmetropes or slightly hyperopic (Spherical equivalent from +0.88 D to −0.50 D with less than 1.00 D of astigmatism) was treated with a composition of the invention.
Three drops containing 1% pilocarpine and 0.125% oxymetazoline w/w dissolved in a solution of 0.5% sodium chloride, with carboxymethyl cellulose as a viscosant and benzalkonium chloride as preservative were instilled into each eye three times separated 5 minutes each, and the same measurements were taken one hour, four hours and six hours later (Table 1). As shown in Table 1 and FIGS. 1-2, there was an average gain of 3.7 units of unaided near visual acuity while losing 0.7 lines of uncorrected distance visual acuity at one hour after instillation. […] The improvement in near vision was more pronounced in younger patients and the lack of detriment of the distance vision (FIG. 2) was more marked in hyperopic patients. […]
After a two-week washout period, five of the patients from example 1 were treated with a combination of 1% pilocarpine and 0.015% meloxicam dissolved in a solution of 0.5% sodium chloride in water plus carboxymethyl cellulose as viscosant and benzalkonium chloride as a preservative, and the same measurements in example 1 were taken at one hour, four hours, and eight hours later. […]

The next data set deals with pupil of patients' eyes. Briefly: Pupillary diameter in medium lighting (mesopic) conditions, infrared camera device. The format is in vivo, human. The conditions noted are these: Example 3. As for the experimental part: as §1, §2
For another data set, the system named is patients' eyes. The conditions noted are these: cited from earlier work.

Values joined by “and” are separate entries in the source; they are usually repeats but may differ in a detail not shown here. Equal values may be shown once.

Turning to `CC[C@@H]1C(=O)OC[C@@H]1Cc1cncn1C` [Pilocarpine alone, pilocarpine], in data set [1] (FIG. 3), the “improvement in near vision, compared with pilocarpine + oxymetazoline” value was “smaller and tended to wear out earlier”. In addition, the “1 h UNVA” value in data set [1] (one drop once, OD 1% pilocarpine + 0.025% oxymetazoline, OS 1% pilocarpine alone, single eyes of 10 patients, 1 h) is “J1 and J1+ and J2 and J3”. The “decrease in distance vision, compared with pilocarpine + oxymetazoline” value in data set [2] (FIG. 4, at the 1 and 4 hour time points) is given as “more decrease in distance vision”. Moreover, the “1 h UDVA” value in data set [2] (one drop once, OD 1% pilocarpine + 0.025% oxymetazoline, OS 1% pilocarpine alone, single eyes, 1 h) was 20/50 and 20/30 and 20/40. Moreover, the “4 h UDVA” value in data set [2] (one drop once, OD 1% pilocarpine + 0.025% oxymetazoline, OS 1% pilocarpine alone, single eyes, 4 h) was 20/40 and 20/20 and 20/30 and 20/25 and 20/50. The “6 h UDVA” value in data set [2] (one drop once, OD 1% pilocarpine + 0.025% oxymetazoline, OS 1% pilocarpine alone, single eyes, 6 h) is 20/30 and 20/20 and 20/25. In addition, the induced astigmatism entry in data set [3] is “seemed to induce more astigmatism”. Moreover, in data set [3] (average per treatment, 1 h), the “1 h Cyl, AVERAGE” value was −0.59; the “1 h Sph Eq, AVERAGE” value was −0.61; the “1 h Sph, AVERAGE” value is −0.32. Besides, in data set [3] (average per treatment, 4 h), the “4 h Cyl, AVERAGE” value is −0.59; the “4 h Sph Eq, AVERAGE” value is listed as −0.43; the “4 h Sph, AVERAGE” value is given as −0.14. Also, in data set [3] (average per treatment, 6 h), the “6 h Cyl, AVERAGE” value is reported as −0.43; the “6 h Sph Eq, AVERAGE” value is listed as 0.35; the “6 h Sph, AVERAGE” value was 0.57. Further, in the data set with pupil of patients' eyes (OD 1% pilocarpine + 0.025% oxymetazoline, OS 1% pilocarpine alone, single eyes, 1 h), the “1 h Pupil” value was 2.1 and 2.3 and 2.2 and 2.4 and 2.5. Further, the “4 h Pupil” value in the data set on pupil of patients' eyes (OD 1% pilocarpine + 0.025% oxymetazoline, OS 1% pilocarpine alone, single eyes, 4 h) was 2.7 and 2.8 and 2.5 and 2.9 and 2.4 and 3 and 2.6 and 3.1. Also, the “6 h Pupil” value in the data set with pupil of patients' eyes (OD 1% pilocarpine + 0.025% oxymetazoline, OS 1% pilocarpine alone, single eyes, 6 h) is 4.9 and 4.7 and 4.4 and 4.2 and 4.1. Moreover, the “1 h Pupil, AVERAGE” value with pupil of patients' eyes (average per treatment, 1 h) stood at 2.05. Moreover, the “4 h Pupil, AVERAGE” value in the data set with pupil of patients' eyes (average per treatment, 4 h) worked out at 2.52. Further, in the data set with pupil of patients' eyes (average per treatment, 6 h), the “6 h Pupil, AVERAGE” value is 4.13. Moreover, the decrease in hyperopia entry with patients' eyes (one patient, 0.3% topical pilocarpine, U.S. Pat. Nos. 6,291,466 and 6,410,544) was “less than half”. The tolerability entry in the data set with patients' eyes (topical concentrations above 0.5%) is “not tolerated due to side effects such as red eyes, ocular pain, brow ache, and headache”. The “effect in the accommodation of the eye” value in the data set on patients' eyes (topical concentrations below 0.5%) is on record as “minimal effect”.

Regarding `Brc1c(NC2=NCCN2)ccc2nccnc12` [brimonidine], the “side effects of topical administration” value with patients' eyes (known to those in the art) was “lightheadedness, dizziness, dry mouth, tachycardia, and stomach upset”.

For the molecule `O=C(O)Cc1ccccc1Nc1c(Cl)cccc1Cl` [diclofenac], the “serious side effects (Congdon et al.)” value with patients' eyes (topical ophthalmic use) was “persistent epithelial defects, corneal melting, and corneal perforation”.
